Data set [1] deals with Transient receptor potential cation channel subfamily V member 1 (Homo sapiens, UniProt Q8NER1).
Description: Antagonist activity at human TRPV1 expressed in CHO cells assessed as inhibition of calcium flux by FLIPR assay
Another data set is described as follows: physchem. To be noted: phosphate buffered saline, pH 7.4.
Data set [2] can be described thus: Intrinsic clearance in human hepatocytes assessed per 10^6 cells. The class given is ADME, cell-based, Liver, Hepatocyte.
Data set [3] can be described thus: Intrinsic clearance in rat hepatocytes assessed per 10^6 cells. The class given is ADME, cell-based, Liver, Hepatocyte.
Data set [4] in a line: AUClast in po dosed rat. The class given is ADME, organism-based. Also noted: route oral, time 0 - last. The following applies: plasma.
The subject of the next data set is Rattus norvegicus. The experiment in a line: Antihyperalgesic activity in po dosed rat capsaicin hargreaves model assessed as reversal of capsaicin-induced thermal hyperalgesia measured by paw withdrawal latency administered 2 hrs before capsaicin challenge. The class given is functional.
Data set [5] can be described thus: Intrinsic clearance in human liver microsomes. The class given is ADME, Microsome. In general terms: Liver microsomes are vesicles of endoplasmic reticulum, rich in cytochrome P450 enzymes.
The nature of data set [6]: Intrinsic clearance in rat liver microsomes. Format: ADME, Microsome.
A short description of data set [7]: Plasma protein binding in human. The class given is ADME, cell-free. To be noted: read-out: PPB (converted).
Data set [8] in a line: Plasma protein binding in Wistar rat. The class given is ADME, cell-free. To be noted: read-out: PPB (converted).

In brackets after ≈: the same amount, converted by molar mass.

Chain of Transient receptor potential cation channel subfamily V member 1 (Q8NER1 whole entry): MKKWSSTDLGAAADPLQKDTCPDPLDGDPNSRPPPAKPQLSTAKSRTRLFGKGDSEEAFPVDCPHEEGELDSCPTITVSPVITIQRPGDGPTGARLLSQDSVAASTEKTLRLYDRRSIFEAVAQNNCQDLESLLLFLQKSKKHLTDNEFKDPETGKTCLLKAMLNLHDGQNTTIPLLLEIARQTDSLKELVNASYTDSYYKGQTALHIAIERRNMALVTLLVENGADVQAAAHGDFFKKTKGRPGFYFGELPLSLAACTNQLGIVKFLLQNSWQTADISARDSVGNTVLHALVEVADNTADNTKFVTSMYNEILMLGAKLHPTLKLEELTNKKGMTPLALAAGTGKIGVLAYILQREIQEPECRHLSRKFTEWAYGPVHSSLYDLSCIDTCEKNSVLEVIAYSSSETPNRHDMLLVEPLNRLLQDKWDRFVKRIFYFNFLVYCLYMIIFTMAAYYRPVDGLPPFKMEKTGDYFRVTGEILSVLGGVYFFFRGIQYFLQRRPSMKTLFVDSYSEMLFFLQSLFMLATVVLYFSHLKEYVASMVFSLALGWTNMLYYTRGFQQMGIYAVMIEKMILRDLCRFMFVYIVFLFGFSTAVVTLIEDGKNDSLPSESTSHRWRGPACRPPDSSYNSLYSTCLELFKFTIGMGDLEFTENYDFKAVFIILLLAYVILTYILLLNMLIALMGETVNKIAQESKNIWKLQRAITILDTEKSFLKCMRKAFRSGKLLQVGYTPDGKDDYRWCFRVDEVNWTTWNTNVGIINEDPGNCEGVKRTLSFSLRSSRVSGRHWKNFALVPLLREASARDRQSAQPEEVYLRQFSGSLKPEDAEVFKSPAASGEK
Description for physchem: Intrinsic solubility of the compound in phosphate buffered saline at pH 7.4 by shake-flask method

With `CCOc1cc(Cl)ccc1-c1onc(C(=O)NC2CCOCC2)c1C`, the IC50 (in general, the concentration that gives 50% inhibition) in data set [1] is 12.6 nM. Moreover, the solubility (thermodynamic) (commonly solubility found after equilibrating the solid with the medium) in “physchem” is under 1 µg/mL.
The corresponding values for `O=C(N[C@@H]1CCC[C@H](O)C1)c1onc(-c2ccc(Cl)c(F)c2)c1Cl` are 3.16 nM and 11 µg/mL (≈ 29.5 µM).
In [1], `CC(C)NCc1c(C(=O)N[C@@H](C)C(C)C)noc1-c1ccc(C(F)(F)F)cc1` gave an IC50 of 63.1 nM. This compound gave a solubility (thermodynamic) in “physchem” of 4 µg/mL (≈ 10.1 µM).
For the compound `CC(C)(O)c1c(C(=O)NC2CCCC2)noc1-c1ccc(C(F)(F)F)cc1`, the IC50 in data set [1] was 5010 nM. This compound yielded a solubility (thermodynamic) in the data set “physchem” of under 1 µg/mL.
In data set [1], `O=C(NC1CCCC1)c1noc(-c2ccc(C(F)(F)F)cc2)c1CO` showed an IC50 of 158 nM. The compound further yielded a thermodynamic solubility in the data set “physchem” of 1 µg/mL (≈ 2.82 µM).
With `CC(C)NCc1c(C(=O)N[C@H](C)C(C)C)noc1-c1ccc(C(F)(F)F)cc1`, the IC50 in data set [1] is 794 nM. Moreover, the thermodynamic solubility in the data set “physchem” amounted to 12 µg/mL (≈ 30.2 µM).
Consider `CC(C)NCc1c(C(=O)N[C@@H]2CCC[C@H](O)C2)noc1-c1ccc(C(F)(F)F)cc1`, for which the hepatocyte CLint in data set [2] and in [3] was under 6 µL/min/1e6 cells throughout. Besides, the AUC(0-t) (usually exposure summed from dosing to a finite time, without extrapolation to infinity) in data set [4] is 2730 ng·h/mL. The MED with Rattus norvegicus amounted to 30 µmol/kg.
In turn, `O=C(N[C@@H]1CCC[C@H](O)C1)c1noc(-c2ccc(C(F)(F)F)c(F)c2)c1Cl` had a concentration for half-maximal inhibition (IC50) in [1] of 0.631 nM. In “physchem”, this compound yielded a solubility (thermodynamic) of under 1 µg/mL.
As to `O=C(N[C@@H]1CCC[C@H](O)C1)c1onc(-c2ccc(F)cc2)c1Cl`, the IC50 in [1] is 794 nM. Also, the thermodynamic solubility in the data set “physchem” is 47 µg/mL (≈ 139 µM).
The corresponding values for `O=C(N[C@@H]1CCC[C@H](O)C1)c1noc(-c2ccc(Cl)cc2)c1Cl` are 5.01 nM and 3 µg/mL (≈ 8.45 µM).
In the case of `O=C(NC1CCCC1)c1noc(-c2ccc(C(F)(F)F)cc2)c1C(=O)O`, the IC50 in data set [1] is 1580 nM. For the same compound, the solubility (thermodynamic) in the data set “physchem” is 72 µg/mL (≈ 195 µM).
For `CC[C@H](CO)NC(=O)c1noc(-c2ccc(C(F)(F)F)c(F)c2)c1CO`, in data set [1], half-maximal inhibition (IC50) required 158 nM. For the same compound, in the data set “physchem”, the thermodynamic solubility is 31 µg/mL (≈ 82.4 µM).
In the case of `CC(C)[C@H](C)NC(=O)c1noc(-c2ccc(C(F)(F)F)c(F)c2)c1CO`, in data set [1], the IC50 was 20 nM. The compound further displayed a solubility (thermodynamic) in “physchem” of 1.4 µg/mL (≈ 3.74 µM).
In turn, `CC(O)c1c(C(=O)NC2CCCC2)noc1-c1ccc(C(F)(F)F)cc1` (stereo not drawn) gave an IC50 in [1] of 1000 nM. Also, in “physchem”, the solubility (thermodynamic) was under 1 µg/mL.
Take `CC(C)NCc1c(C(=O)NC2CCCC2)noc1-c1ccc(C(F)(F)F)cc1`: half-maximal inhibition in data set [1] (IC50) required 316 nM. The compound further displayed a solubility (thermodynamic) in the data set “physchem” of 13 µg/mL (≈ 32.9 µM).
`O=C(NC1CCOCC1)c1noc(-c2ccc(C(F)(F)F)cc2)c1CO` showed an IC50 in data set [1] of 3160 nM. Also, the thermodynamic solubility in the data set “physchem” worked out at 35 µg/mL (≈ 94.5 µM).
In the case of `CC[C@H](CO)NC(=O)c1noc(-c2ccc(C(F)(F)F)cc2)c1CO`, in data set [1], the IC50 is 1580 nM. Further, the thermodynamic solubility in the data set “physchem” is 66 µg/mL (≈ 184 µM).
Compound `O=C(NC1CCCC1)c1noc(-c2ccc(C(F)(F)F)c(F)c2)c1CO` had an IC50 in data set [1] of 39.8 nM. Moreover, the solubility (thermodynamic) in the data set “physchem” turned out to be 73 µg/mL (≈ 196 µM).
With `O=C(N[C@@H]1CCC[C@H](O)C1)c1noc(-c2ccc(Cl)c(F)c2)c1Cl`, the IC50 in [1] was 0.631 nM. The thermodynamic solubility in “physchem” came to 2 µg/mL (≈ 5.36 µM).
The corresponding values for `CCOc1cc(Cl)ccc1-c1onc(C(=O)NC2CCC(O)CC2)c1C` (stereo not drawn) are 200 nM and 28 µg/mL (≈ 73.9 µM).
In [1], `O=C(N[C@@H]1CCC[C@H](O)C1)c1noc(-c2ccc(F)cc2)c1Cl` had an IC50 of 50.1 nM. The thermodynamic solubility in the data set “physchem” came out at 38 µg/mL (≈ 112 µM).
Consider `O=C(N[C@@H]1CCC[C@H](O)C1)c1noc(-c2ccc(C(F)(F)F)cc2)c1Cl`, for which the microsomal CLint in data set [5] and in [6] was under 12 µL/min/mg each time. The results for the fraction unbound in data set [7] and in [8] were 0.01 and 0.007, respectively. The compound also showed an IC50 in data set [1] of 0.501 nM. Besides, the solubility (thermodynamic) in the data set “physchem” was under 1 µg/mL.
Compound `O=C(NC1CCC(O)CC1)c1noc(-c2ccc(C(F)(F)F)cc2)c1CO` (stereo not drawn) had an IC50 in [1] of 1580 nM. Further, the thermodynamic solubility in the data set “physchem” amounted to 70 µg/mL (≈ 182 µM).
As for `Cc1c(C(=O)N[C@@H]2CCC[C@H](O)C2)noc1-c1ccc(C(F)(F)F)c(F)c1`, the IC50 in [1] is 2 nM. The compound further had a thermodynamic solubility in “physchem” of 4 µg/mL (≈ 10.4 µM).
On to `CN(C)C(=O)c1c(C(=O)NC2CCCC2)noc1-c1ccc(C(F)(F)F)cc1`, for which the IC50 in data set [1] is 2000 nM. In “physchem”, this compound returned a solubility (thermodynamic) of under 1 µg/mL.
In the case of `O=C(N[C@@H]1CCC[C@H](O)C1)c1noc(-c2ccc(C(F)(F)F)cc2)c1CO`, the results for the microsomal CLint in [5] and in [6] were under 12 µL/min/mg and 27 µL/min/mg, respectively. Further, the figures for the fraction unbound in data set [7] and in [8] were 0.081 and 0.091, respectively. Moreover, 79.4 nM corresponded to half-maximal inhibition in data set [1] (IC50). In the data set “physchem”, this compound had a solubility (thermodynamic) of 73 µg/mL (≈ 190 µM).
In turn, `CC(C)[C@H](C)NC(=O)c1noc(-c2ccc(C(F)(F)F)cc2)c1CO` had an IC50 in [1] of 126 nM. Besides, the thermodynamic solubility in the data set “physchem” is 1.5 µg/mL (≈ 4.21 µM).
`CCNC(=O)c1c(C(=O)NC2CCCC2)noc1-c1ccc(C(F)(F)F)cc1` showed an IC50 in data set [1] of 5010 nM. In addition, in “physchem”, the solubility (thermodynamic) came out at 1.6 µg/mL (≈ 4.05 µM).
The corresponding values for `CCOc1cc(Cl)ccc1-c1onc(C(=O)N[C@@H]2CCC[C@H](O)C2)c1C` are 12.6 nM and 27 µg/mL (≈ 71.3 µM).

The record behind these values is ChEMBL document CHEMBL1806385, “Discovery of potent, soluble and orally active TRPV1 antagonists. Structure-activity relationships of a series of isoxazoles” (Bioorg Med Chem Lett, 2011).
